Experimental data: ChEMBL document CHEMBL3885861, “Open TG-GATES”

Species on record: Rattus norvegicus
Assay: Open TG-GATES - Regimen: Daily Repeat
Assay type: toxicity, organism-based, Sprague-Dawley
Parameters: regimen Daily Repeat, gender Male, age 6 weeks
Details: in vivo, po, route gavage; for APTT / Bas / Eos / Fbg / Hb / Ht / Lym / MCH / MCHC / MCV / Mono / Neu / PT / Plat / RBC / Ret / WBC: tissue Blood; for KIDNEY_L / KIDNEY_R / KIDNEY_TOTAL: tissue Kidney; for LIVER: tissue Liver; for ALP / ALT / AST / BUN / CRE / DBIL / GLC / K / Na / PL / RALB / TBIL / TC / TG / TP / gamma-GTP: tissue Plasma
[1] = 75 mg/kg, 72 h, dose level Middle, time 3 day
[2] = 75 mg/kg, […], dose level Middle, time 7 day
[3] = 75 mg/kg, […], dose level Middle, time 14 day
[4] = 75 mg/kg, […], dose level Middle, time 28 day
[5] = 250 mg/kg, 72 h, dose level High, time 3 day
[6] = 250 mg/kg, […], dose level High, time 7 day
[7] = 250 mg/kg, […], dose level High, time 14 day
[8] = 250 mg/kg, […], dose level High, time 28 day

CN1C(=O)CN=C(c2ccccc2)c2cc(Cl)ccc21 [DIAZEPAM]
TERMINAL_BW [1]: 244.2 g | APTT [1]: 16.3 s | Bas [1]: 0% | Eos [1]: 1.2% | Fbg [1]: 235.6 mg/dL | Hb [1]: 13.7 g/dL | Ht [1]: 41.3% | Lym [1]: 77.4% | MCH [1]: 21.3 pg | MCHC [1]: 33.3% | MCV [1]: 64.1 fL | Mono [1]: 6% | Neu [1]: 15.8% | PT [1]: 11.6 s | Plat [1]: 112.9 x10_4/uL | RBC [1]: 644 x10_4/ul | Ret [1]: 6.3% | WBC [1]: 129.7 x10_2/uL | KIDNEY_L [1]: 1.1 g | KIDNEY_R [1]: 1 g | KIDNEY_TOTAL [1]: 2.1 g | LIVER [1]: 12.5 g | ALP [1]: 782.4 IU/L | ALT [1]: 33.2 IU/L | AST [1]: 62.6 IU/L | BUN [1]: 19 mg/dL | CRE [1]: 0.6 mg/dL | DBIL [1]: 0.008 mg/dL | GLC [1]: 194.2 mg/dL | K [1]: 5 meq/L | Na [1]: 138.7 meq/L | PL [1]: 164.2 mg/dL | RALB [1]: 4.1 g/dL | TBIL [1]: 0.4 mg/dL | TC [1]: 90.8 mg/dL | TG [1]: 99.2 mg/dL | TP [1]: 6 g/dL | gamma-GTP [1]: 0.8 IU/L | TERMINAL_BW [2]: 272.1 g | TERMINAL_BW [3]: 328 g | TERMINAL_BW [4]: 403 g | APTT [2]: 16.8 s | Bas [2]: 0% | Eos [2]: 1% | Fbg [2]: 230.6 mg/dL | Hb [2]: 14.3 g/dL | Ht [2]: 43.5% | Lym [2]: 77.8% | MCH [2]: 21 pg | MCHC [2]: 32.9% | MCV [2]: 63.8 fL | Mono [2]: 5.8% | Neu [2]: 15.4% | PT [2]: 11.4 s | Plat [2]: 107.7 x10_4/uL | RBC [2]: 682.8 x10_4/ul | Ret [2]: 5.5% | WBC [2]: 100.7 x10_2/uL | APTT [3]: 16.7 s | Bas [3]: 0% | Eos [3]: 0.6% | Fbg [3]: 228.6 mg/dL | Hb [3]: 14.6 g/dL | Ht [3]: 43.7% | Lym [3]: 82.6% | MCH [3]: 21.1 pg | MCHC [3]: 33.4% | MCV [3]: 63 fL | Mono [3]: 3.8% | Neu [3]: 12.8% | PT [3]: 11.8 s | Plat [3]: 111.6 x10_4/uL | RBC [3]: 694.4 x10_4/ul | Ret [3]: 4.9% | WBC [3]: 142.4 x10_2/uL | APTT [4]: 17.8 s | Bas [4]: 0% | Eos [4]: 1.2% | Fbg [4]: 236.6 mg/dL | Hb [4]: 15.2 g/dL | Ht [4]: 45.7% | Lym [4]: 80.4% | MCH [4]: 19 pg | MCHC [4]: 33.3% | MCV [4]: 57 fL | Mono [4]: 3.6% | Neu [4]: 14.4% | PT [4]: 12 s | Plat [4]: 106.3 x10_4/uL | RBC [4]: 802.8 x10_4/ul | Ret [4]: 2.6% | WBC [4]: 121 x10_2/uL | KIDNEY_L [2]: 1.2 g | KIDNEY_R [2]: 1.2 g | KIDNEY_TOTAL [2]: 2.3 g | KIDNEY_L [3]: 1.3 g | KIDNEY_R [3]: 1.4 g | KIDNEY_TOTAL [3]: 2.7 g | KIDNEY_L [4]: 1.4 g | KIDNEY_R [4]: 1.5 g | KIDNEY_TOTAL [4]: 2.9 g | LIVER [2]: 13.9 g | LIVER [3]: 15.5 g | LIVER [4]: 17.7 g | ALP [2]: 755 IU/L | ALT [2]: 36.8 IU/L | AST [2]: 57.8 IU/L | BUN [2]: 16.4 mg/dL | CRE [2]: 0.6 mg/dL | DBIL [2]: 0.01 mg/dL | GLC [2]: 199 mg/dL | K [2]: 4.5 meq/L | Na [2]: 138.9 meq/L | PL [2]: 155.2 mg/dL | RALB [2]: 4.2 g/dL | TBIL [2]: 0.3 mg/dL | TC [2]: 81.8 mg/dL | TG [2]: 86.4 mg/dL | TP [2]: 6.2 g/dL | gamma-GTP [2]: 1.2 IU/L | ALP [3]: 627.6 IU/L | ALT [3]: 32.8 IU/L | AST [3]: 59.2 IU/L | BUN [3]: 16 mg/dL | CRE [3]: 0.6 mg/dL | DBIL [3]: 0.006 mg/dL | GLC [3]: 194.8 mg/dL | K [3]: 4.4 meq/L | Na [3]: 141.1 meq/L | PL [3]: 144.8 mg/dL | RALB [3]: 4 g/dL | TBIL [3]: 0.4 mg/dL | TC [3]: 74.6 mg/dL | TG [3]: 87.4 mg/dL | TP [3]: 6.1 g/dL | gamma-GTP [3]: 1 IU/L | ALP [4]: 410.4 IU/L | ALT [4]: 32.2 IU/L | AST [4]: 56.8 IU/L | BUN [4]: 20.2 mg/dL | CRE [4]: 0.6 mg/dL | DBIL [4]: 0.012 mg/dL | GLC [4]: 192.4 mg/dL | K [4]: 4.2 meq/L | Na [4]: 139.9 meq/L | PL [4]: 151.4 mg/dL | RALB [4]: 4.1 g/dL | TBIL [4]: 0.3 mg/dL | TC [4]: 74 mg/dL | TG [4]: 136 mg/dL | TP [4]: 6.7 g/dL | gamma-GTP [4]: 0.4 IU/L | TERMINAL_BW [5]: 237.9 g | APTT [5]: 16.2 s | Bas [5]: 0% | Eos [5]: 1% | Fbg [5]: 230.6 mg/dL | Hb [5]: 14 g/dL | Ht [5]: 42% | Lym [5]: 78.8% | MCH [5]: 21.5 pg | MCHC [5]: 33.3% | MCV [5]: 64.8 fL | Mono [5]: 6.2% | Neu [5]: 14.2% | PT [5]: 11.6 s | Plat [5]: 103.3 x10_4/uL | RBC [5]: 648.4 x10_4/ul | Ret [5]: 5.6% | WBC [5]: 126.1 x10_2/uL | KIDNEY_L [5]: 1.1 g | KIDNEY_R [5]: 1.1 g | KIDNEY_TOTAL [5]: 2.1 g | LIVER [5]: 12.6 g | ALP [5]: 891.8 IU/L | ALT [5]: 47.4 IU/L | AST [5]: 68.8 IU/L | BUN [5]: 17.2 mg/dL | CRE [5]: 0.6 mg/dL | DBIL [5]: 0.024 mg/dL | GLC [5]: 201.4 mg/dL | K [5]: 4.8 meq/L | Na [5]: 138.9 meq/L | PL [5]: 173.6 mg/dL | RALB [5]: 3.8 g/dL | TBIL [5]: 0.3 mg/dL | TC [5]: 113.4 mg/dL | TG [5]: 59.8 mg/dL | TP [5]: 5.9 g/dL | gamma-GTP [5]: 1.8 IU/L | TERMINAL_BW [6]: 268.4 g | TERMINAL_BW [7]: 309.4 g | TERMINAL_BW [8]: 402.6 g | APTT [6]: 17.2 s | Bas [6]: 0% | Eos [6]: 1.2% | Fbg [6]: 211.8 mg/dL | Hb [6]: 13.7 g/dL | Ht [6]: 40.8% | Lym [6]: 76.6% | MCH [6]: 21.6 pg | MCHC [6]: 33.5% | MCV [6]: 64.6 fL | Mono [6]: 6% | Neu [6]: 16.6% | PT [6]: 11.6 s | Plat [6]: 128 x10_4/uL | RBC [6]: 633.8 x10_4/ul | Ret [6]: 5.9% | WBC [6]: 144 x10_2/uL | APTT [7]: 18.5 s | Bas [7]: 0% | Eos [7]: 0.8% | Fbg [7]: 245.8 mg/dL | Hb [7]: 14.6 g/dL | Ht [7]: 43.8% | Lym [7]: 79% | MCH [7]: 20.6 pg | MCHC [7]: 33.4% | MCV [7]: 61.8 fL | Mono [7]: 4.6% | Neu [7]: 15.6% | PT [7]: 11.9 s | Plat [7]: 106.7 x10_4/uL | RBC [7]: 709.4 x10_4/ul | Ret [7]: 4.3% | WBC [7]: 144 x10_2/uL | APTT [8]: 20.2 s | Bas [8]: 0% | Eos [8]: 1% | Fbg [8]: 252 mg/dL | Hb [8]: 15.4 g/dL | Ht [8]: 45.8% | Lym [8]: 81.4% | MCH [8]: 19.7 pg | MCHC [8]: 33.6% | MCV [8]: 58.5 fL | Mono [8]: 4.2% | Neu [8]: 13.4% | PT [8]: 12.2 s | Plat [8]: 109.3 x10_4/uL | RBC [8]: 782.2 x10_4/ul | Ret [8]: 3% | WBC [8]: 179.4 x10_2/uL | KIDNEY_L [6]: 1.2 g | KIDNEY_R [6]: 1.2 g | KIDNEY_TOTAL [6]: 2.4 g | KIDNEY_L [7]: 1.3 g | KIDNEY_R [7]: 1.4 g | KIDNEY_TOTAL [7]: 2.7 g | KIDNEY_L [8]: 1.6 g | KIDNEY_R [8]: 1.6 g | KIDNEY_TOTAL [8]: 3.2 g | LIVER [6]: 14.5 g | LIVER [7]: 16.6 g | LIVER [8]: 19.7 g | ALP [6]: 732.8 IU/L | ALT [6]: 35.4 IU/L | AST [6]: 64.8 IU/L | BUN [6]: 17.2 mg/dL | CRE [6]: 0.6 mg/dL | DBIL [6]: 0.008 mg/dL | GLC [6]: 194.4 mg/dL | K [6]: 4.5 meq/L | Na [6]: 139.1 meq/L | PL [6]: 133.4 mg/dL | RALB [6]: 3.9 g/dL | TBIL [6]: 0.3 mg/dL | TC [6]: 78 mg/dL | TG [6]: 35.4 mg/dL | TP [6]: 6.1 g/dL | gamma-GTP [6]: 1 IU/L | ALP [7]: 735.2 IU/L | ALT [7]: 37.8 IU/L | AST [7]: 54.2 IU/L | BUN [7]: 17.6 mg/dL | CRE [7]: 0.6 mg/dL | DBIL [7]: 0.01 mg/dL | GLC [7]: 193.6 mg/dL | K [7]: 4.6 meq/L | Na [7]: 142 meq/L | PL [7]: 145.4 mg/dL | RALB [7]: 4.1 g/dL | TBIL [7]: 0.2 mg/dL | TC [7]: 78.8 mg/dL | TG [7]: 48 mg/dL | TP [7]: 6.4 g/dL | gamma-GTP [7]: 1.6 IU/L | ALP [8]: 448.2 IU/L | ALT [8]: 35 IU/L | AST [8]: 53.6 IU/L | BUN [8]: 19 mg/dL | CRE [8]: 0.6 mg/dL | DBIL [8]: 0.012 mg/dL | GLC [8]: 195.4 mg/dL | K [8]: 4.1 meq/L | Na [8]: 140.5 meq/L | PL [8]: 135.4 mg/dL | RALB [8]: 4.3 g/dL | TBIL [8]: 0.3 mg/dL | TC [8]: 73.4 mg/dL | TG [8]: 48 mg/dL | TP [8]: 6.8 g/dL | gamma-GTP [8]: 0.8 IU/L
